This is an account of results in patent US5741798A, “2-benzyl-4-sulfonyl-4H-isoquinolin-1,3-diones and their use as antiinflammatory agents” (priority 1997, dated 1998).

Assay [1] has as its target T1, Human cyclooxygenase 2 (COX-2) (Homo sapiens, UniProt P35354).
T1 sequence (P35354 18-604): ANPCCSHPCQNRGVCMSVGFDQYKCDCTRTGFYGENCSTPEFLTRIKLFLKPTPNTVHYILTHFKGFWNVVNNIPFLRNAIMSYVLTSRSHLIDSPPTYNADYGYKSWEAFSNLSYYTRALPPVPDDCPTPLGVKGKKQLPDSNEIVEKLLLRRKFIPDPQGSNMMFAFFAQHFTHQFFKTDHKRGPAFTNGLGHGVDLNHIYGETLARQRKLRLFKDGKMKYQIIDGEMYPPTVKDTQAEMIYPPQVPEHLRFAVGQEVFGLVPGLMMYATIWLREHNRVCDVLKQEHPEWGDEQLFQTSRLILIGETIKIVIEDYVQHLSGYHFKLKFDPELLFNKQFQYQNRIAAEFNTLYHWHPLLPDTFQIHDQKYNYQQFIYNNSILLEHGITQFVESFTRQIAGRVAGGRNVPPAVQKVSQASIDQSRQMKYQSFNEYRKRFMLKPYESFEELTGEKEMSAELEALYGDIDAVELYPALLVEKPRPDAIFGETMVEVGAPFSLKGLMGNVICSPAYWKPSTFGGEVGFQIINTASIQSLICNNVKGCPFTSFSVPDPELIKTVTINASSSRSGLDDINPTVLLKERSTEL
Put plainly: COX-2 inhibition, microsomal assay. The settings on record: 20 min, read-out: % Inhibition of COX Enzymes in Microsomal Assays, COX-2. Here is the method: (§1) Human cyclooxygenase 1 and 2 are expressed in a baculovirus expression system using High 5 insect cells. Microsomal fractions prepared from the cells are stored at -80° C. The assays are performed at room temperature in phosphate buffered saline. After incubating the COX-1 or COX-2 microsomes with hematin (2 μM), phenol (0.5 mM) and reduced glutathione (1 mM) for 5 minutes, inhibitor or DMSO vehicle is added and allowed to incubate for 20 minutes. Arachidonic acid (2 μM) is added and after 20 minutes the reaction is stopped by the addition of HCl (0.1 N HCl final concentration).
(§2) The inhibitory activities against COX-1 and COX-2 of the compounds described in the above Synthetic Examples were determined using the two in vitro assays described above.

For assay [2], the target named is Human cyclooxygenase 1 (COX-1) (Homo sapiens, UniProt P23219). Put plainly: COX-1 inhibition, microsomal assay. Conditions: 20 min, read-out: % Inhibition of COX Enzymes in Microsomal Assays, COX-1. How it is done:
as §1, §2

In assay [3] the target is T2, human recombinant COX-2 (Homo sapiens, UniProt P35354).
T2 construct: expressed in transfected cells; host or cells: Cos-A2 cells, stably transfected
T2 sequence (P35354 18-604): T1 sequence (P35354 18-604)
As to the kind of experiment: COX-2 inhibition, COS cell assay. The assay is classed as cell-based. The settings on record: for inhibition at 1 µM / inhibition at 10 µM / inhibition at 0.1 µM: COS, read-out: Inhibition of COX Enzymes in COS Cell Assays, COX-2 % inhibition; for IC50: COS cells, COX-2, read-out: Inhibition of COX Enzymes in COS Cell Assays, COX-2 IC50. How it is done: (§3) Cos-A2 cells stably transfected with human recombinant COX-1 or COX-2 are cultured in 96 well tissue culture plates with Dulbecco's Modified Eagle Medium supplemented with 10% fetal bovine serum, glutamine (2 mM), penicillin (50 U/mL), streptomycin ([…]) and geneticin (400 μg/mL). Media is removed from confluent monolayers and the cells are washed twice with Hank's buffered saline solution. Fresh HBSS is added, with or without inhibitor, and the cells are incubated for 30 minutes at 37° C. Arachidonic acid (30 μM) is then added and the cells are incubated for an additional one hour at 37° C. Individual experiments represent a mean of triplicate wells for control and inhibitor doses. Supernatents are removed and stored at -80° C. until assayed for PGE2 by EIA (Amersham).
as §2

Assay [4] addresses T3, human recombinant COX-1 (Homo sapiens, UniProt P23219).
T3 construct: expressed in transfected cells; host or cells: Cos-A2 cells, stably transfected
Put plainly: COX-1 inhibition, COS cell assay. The assay is classed as cell-based. Conditions: for inhibition at 1 µM / inhibition at 10 µM / inhibition at 0.1 µM: COS, read-out: Inhibition of COX Enzymes in COS Cell Assays, COX-1 % inhibition. Here is the method:
as §3, §2

Like-named read-outs stand apart in the source and are kept apart here.

Human cyclooxygenase 1 (COX-1), sequence (P23219 24-599): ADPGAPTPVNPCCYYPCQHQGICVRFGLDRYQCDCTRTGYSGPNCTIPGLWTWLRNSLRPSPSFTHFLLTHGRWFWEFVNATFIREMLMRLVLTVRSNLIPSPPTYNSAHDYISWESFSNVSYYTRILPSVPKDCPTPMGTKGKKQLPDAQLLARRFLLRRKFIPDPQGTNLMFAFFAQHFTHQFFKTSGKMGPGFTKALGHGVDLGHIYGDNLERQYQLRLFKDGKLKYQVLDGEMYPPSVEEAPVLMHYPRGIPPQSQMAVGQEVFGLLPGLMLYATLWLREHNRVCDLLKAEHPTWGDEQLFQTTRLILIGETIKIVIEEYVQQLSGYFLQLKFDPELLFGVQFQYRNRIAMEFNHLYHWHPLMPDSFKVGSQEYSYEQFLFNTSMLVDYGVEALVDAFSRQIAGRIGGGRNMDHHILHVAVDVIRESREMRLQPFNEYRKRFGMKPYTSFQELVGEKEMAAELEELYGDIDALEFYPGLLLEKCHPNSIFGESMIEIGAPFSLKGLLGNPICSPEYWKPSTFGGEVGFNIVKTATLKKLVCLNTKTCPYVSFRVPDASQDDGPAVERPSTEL
T3 sequence (P23219 24-599): as above

On to `CC(C)S(=O)(=O)C1C(=O)N(Cc2ccccc2F)C(=O)c2ccccc21` (stereo not shown) [Example 2, 2-(2-Fluorobenzyl)-4-(1-methylethyl)sulfonyl-4H-isoquinoline-1,3-dione], for which, in assay [1], the inhibition at 0.1 µg/mL stood at 10%, the inhibition at 1 µg/mL was 37% and the inhibition at 10 µg/mL was found to be 49%. In assay [2], the inhibition at 0.1 µg/mL was -1%, the inhibition at 1 µg/mL turned out to be 14% and the inhibition at 10 µg/mL was 18%. In assay [3], the inhibition at 1 µM was determined as 45% and the inhibition at 10 µM amounted to 46%. In addition, the inhibition at 1 µM in assay [4] (1 μM) was 33%. Also, in assay [4] (10 μM), the inhibition at 10 µM stood at 39%.
In the case of `CCCS(=O)(=O)C1C(=O)N(Cc2ccccc2)C(=O)c2ccccc21` (stereo not shown) [Example 3], in assay [1], the inhibition at 0.1 µg/mL was -6%, the inhibition at 1 µg/mL turned out to be 15% and the inhibition at 10 µg/mL came to 27%. Further, in assay [2], the inhibition at 0.1 µg/mL was -9%, the inhibition at 1 µg/mL was determined as 22% and the inhibition at 10 µg/mL was 33%.
In the case of `CCCCS(=O)(=O)C1C(=O)N(Cc2ccccc2)C(=O)c2ccccc21` (stereo not shown) [Example 4], in assay [1], the inhibition at 0.1 µg/mL came out at 0%, the inhibition at 1 µg/mL turned out to be 30% and the inhibition at 10 µg/mL is 20%. In assay [2], the inhibition at 0.1 µg/mL amounted to 4%, the inhibition at 1 µg/mL is 15% and the inhibition at 10 µg/mL came out at 15%.
Turning to `CC(C)S(=O)(=O)C1C(=O)N(Cc2ccccc2)C(=O)c2ccccc21` (stereo not shown) [Example 5], in assay [1], the inhibition at 0.1 µg/mL was 27%, the inhibition at 1 µg/mL worked out at 56% and the inhibition at 10 µg/mL was determined as 58%. Moreover, in assay [2], the inhibition at 0.1 µg/mL was -6%, the inhibition at 1 µg/mL is 11% and the inhibition at 10 µg/mL came to 23%. In addition, in assay [3], the inhibition at 0.1 µM came to 17%, the inhibition at 1 µM is 37% and the inhibition at 10 µM turned out to be 51%. Further, in assay [4], the inhibition at 0.1 µM is 13%, the inhibition at 1 µM was 43% and the inhibition at 10 µM turned out to be 74%.
As for `CC(C)S(=O)(=O)C1C(=O)N(Cc2cccc(Cl)c2)C(=O)c2ccccc21` (stereo not shown) [Example 6], in assay [1], the inhibition at 0.1 µg/mL is 10%, the inhibition at 1 µg/mL came out at 27% and the inhibition at 10 µg/mL worked out at 27%. Besides, in assay [2], the inhibition at 0.1 µg/mL was -10%, the inhibition at 1 µg/mL amounted to 19% and the inhibition at 10 µg/mL is 30%.
Regarding `CC(C)S(=O)(=O)C1C(=O)N(Cc2ccc(Cl)cc2)C(=O)c2ccccc21` (stereo not shown) [Example 7], in assay [1], the inhibition at 0.1 µg/mL stood at 3%, the inhibition at 1 µg/mL turned out to be 62% and the inhibition at 10 µg/mL came to 67%. In addition, in assay [2], the inhibition at 0.1 µg/mL was -3%, the inhibition at 1 µg/mL was determined as 4% and the inhibition at 10 µg/mL was 36%. Also, in assay [3], the inhibition at 0.1 µM is 26%, the inhibition at 1 µM turned out to be 52% and the inhibition at 10 µM came to 74%. For the same compound, the inhibition at 0.1 µM in assay [4] (0.1 μM) came out at 6%. The inhibition at 1 µM in assay [4] (1 μM) came to 46%. Moreover, the inhibition at 10 µM in assay [4] (10 μM) amounted to 72%.
In the case of `CC(C)S(=O)(=O)C1C(=O)N(Cc2ccc(F)cc2)C(=O)c2ccccc21` (stereo not shown) [Example 8], in assay [1], the inhibition at 0.1 µg/mL is -1%, the inhibition at 1 µg/mL was 68% and the inhibition at 10 µg/mL came out at 86%. Besides, in assay [3], the IC50 was determined as 90 nM.
Turning to `CC(C)S(=O)(=O)C1C(=O)N(Cc2ccc(F)c(F)c2)C(=O)c2ccccc21` (stereo not shown) [Example 9], the figures for the inhibition at 0.1 µg/mL in assay [1] and in assay [2] were 8% and 10%, respectively. Further, the values for the inhibition at 1 µg/mL in assay [1] and in assay [2] were 75% and 17%, respectively. The inhibition at 10 µg/mL is 80% in assay [1] and 57% in assay [2]. Besides, the IC50 worked out at 200 nM in assay [3] and 570 nM in assay [4] (COS cells, COX-1, read-out: Inhibition of COX Enzymes in COS Cell Assays, COX-1 IC50).
On to `O=C1c2ccccc2C(S(=O)(=O)c2ccccc2)C(=O)N1Cc1ccccc1` (stereo not shown) [Example 12], for which, in assay [2], the inhibition at 0.1 µg/mL is 17%, the inhibition at 1 µg/mL came out at 59% and the inhibition at 10 µg/mL was determined as 74%. The inhibition at 0.1 µM in assay [4] (0.1 μM) worked out at 22%. The inhibition at 1 µM in assay [4] (1 μM) was determined as 61%. Further, the inhibition at 10 µM in assay [4] (10 μM) stood at 85%.
On to `O=C1c2ccccc2C(S(=O)(=O)c2ccc(Br)cc2)C(=O)N1Cc1ccccc1` (stereo not shown) [Example 13], for which, in assay [1], the inhibition at 0.1 µg/mL was determined as 28%, the inhibition at 1 µg/mL came out at 92% and the inhibition at 10 µg/mL amounted to 100%. In assay [2], the inhibition at 0.1 µg/mL came to 44%, the inhibition at 1 µg/mL was determined as 74% and the inhibition at 10 µg/mL stood at 100%.
Regarding `Cc1ccc(S(=O)(=O)C2C(=O)N(Cc3ccccc3)C(=O)c3ccccc32)cc1` (stereo not shown) [Example 14], in assay [1], the inhibition at 0.1 µg/mL is -13%, the inhibition at 1 µg/mL is 63% and the inhibition at 10 µg/mL stood at 100%. Besides, in assay [2], the inhibition at 0.1 µg/mL was found to be 59%, the inhibition at 1 µg/mL is 93% and the inhibition at 10 µg/mL came to 100%.
Turning to `O=C1c2ccccc2C(S(=O)(=O)c2ccc3ccccc3c2)C(=O)N1Cc1ccccc1` (stereo not shown) [Example 15], in assay [1], the inhibition at 0.1 µg/mL is -29%, the inhibition at 1 µg/mL stood at 14% and the inhibition at 10 µg/mL stood at 34%. For the same compound, in assay [2], the inhibition at 0.1 µg/mL was determined as 23%, the inhibition at 1 µg/mL was found to be 24% and the inhibition at 10 µg/mL was 57%.
As to `COc1ccc(S(=O)(=O)C2C(=O)N(Cc3ccccc3)C(=O)c3ccccc32)cc1` (stereo not shown) [Example 16], in assay [1], the inhibition at 0.1 µg/mL came out at 21%, the inhibition at 1 µg/mL came to 74% and the inhibition at 10 µg/mL was 97%. In assay [2], the inhibition at 0.1 µg/mL stood at 33%, the inhibition at 1 µg/mL stood at 81% and the inhibition at 10 µg/mL worked out at 93%.
For the compound `CC(C)(C)c1ccc(S(=O)(=O)C2C(=O)N(Cc3ccccc3)C(=O)c3ccccc32)cc1` (stereo not shown) [Example 17], in assay [1], the inhibition at 0.1 µg/mL is 20%, the inhibition at 1 µg/mL was 12% and the inhibition at 10 µg/mL is 39%. In assay [2], the inhibition at 0.1 µg/mL was found to be 17%, the inhibition at 1 µg/mL was found to be 20% and the inhibition at 10 µg/mL is 45%.
Turning to `O=C1c2ccccc2C(S(=O)(=O)c2ccc(F)cc2)C(=O)N1Cc1ccccc1` (stereo not shown) [Example 18], in assay [1], the inhibition at 0.1 µg/mL amounted to 33%, the inhibition at 1 µg/mL was found to be 66% and the inhibition at 10 µg/mL is 81%. For the same compound, in assay [2], the inhibition at 0.1 µg/mL came to 48%, the inhibition at 1 µg/mL is 76% and the inhibition at 10 µg/mL came to 92%.
For `O=C1c2ccccc2C(S(=O)(=O)c2ccc(Cl)cc2)C(=O)N1Cc1ccccc1` (stereo not shown) [Example 19], in assay [1], the inhibition at 0.1 µg/mL came to 59%, the inhibition at 1 µg/mL amounted to 89% and the inhibition at 10 µg/mL was determined as 93%. In addition, in assay [2], the inhibition at 0.1 µg/mL stood at 52%, the inhibition at 1 µg/mL was 71% and the inhibition at 10 µg/mL worked out at 89%.
For `O=C1c2ccccc2C(S(=O)(=O)c2ccc([N+](=O)[O-])cc2)C(=O)N1Cc1ccccc1` (stereo not shown) [Example 20], in assay [1], the inhibition at 0.1 µg/mL was determined as 20%, the inhibition at 1 µg/mL stood at 37% and the inhibition at 10 µg/mL came to 46%. Also, in assay [2], the inhibition at 0.1 µg/mL worked out at 21%, the inhibition at 1 µg/mL was found to be 41% and the inhibition at 10 µg/mL is 62%.
